Article PMC5007854, “β-Nitrostyrenes as Potential Anti-leishmanial Agents” (Frontiers in Microbiology, 2016)
Converted amounts (≈) assume the structure as drawn. Where two headings read alike, the source gives them in different places.

Tests used:
[1] = test system: L. donovani promastigotes; test: Leishmanicidal assay (growth reversion after wash-out); type: cell-based, Leishmania donovani; settings: 1 μM, 72 h treatment, then 72 h in fresh media
Method: To confirm the leishmanicidal effect of compounds 9, 12, 14, and 18, treated and untreated parasites (1 μM) after 72 h of incubation, were washed two times with fresh incomplete medium and finally resuspended in complete media, transferred back to 22°C and allowed to grow for 72 h. The viability of the parasites was determined microscopically (Afrin et al., [2001]).

[2] = test system: Candida albicans ATCC 90028; test: Broth microdilution antifungal susceptibility (MIC/MFC); type: cell-based; settings: for MIC / MFC: Candida albicans; for MIC: ATCC90028, 48 h
How it was run: (§1)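 CLSI broth microdilution: Ca/Mg-supplemented Mueller-Hinton for bacteria (~5 × 10^5 CFU/mL, 24 h), MOPS-buffered RPMI 1640 pH 7.0 for fungi (Candida ~2.5 × 10^4, Aspergillus 0.4-5 × 10^4 CFU/mL, 48 h), 35°C, 1% DMSO, 64 to 0.12 μg/mL. MIC read visually; MBC/MFC by plating clear wells.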

[3] = test system: Candida glabrata ATCC 90030; test: as above; type: cell-based; settings: for MIC / MFC: Nakaseomyces glabratus; for MIC: ATCC90030, 48 h
How it was run: as §1

[4] = test system: Aspergillus fumigatus ATCC 16424; test: as above; type: cell-based; settings: for MIC / MFC: Aspergillus fumigatus; for MIC: ATCC16424, 48 h
How it was run: as §1

[5] = test system: Aspergillus niger ATCC 16404; test: as above; type: cell-based; settings: for MIC / MFC: Aspergillus niger; for MIC: ATCC16404, 48 h
How it was run: as §1

[6] = test system: Staphylococcus aureus ATCC 29213; test: Broth microdilution antibacterial susceptibility (MIC/MBC); type: cell-based; settings: Staphylococcus aureus; for MIC: ATCC29213, 24 h
How it was run: as §1

[7] = test system: Pseudomonas aeruginosa ATCC 27853; test: as above; type: cell-based; settings: for MIC / MBC: Pseudomonas aeruginosa; for MIC: ATCC27853, 24 h
How it was run: as §1

[8] = test system: Escherichia coli ATCC 25922; test: as above; type: cell-based; settings: for MIC / MBC: Escherichia coli; for MIC: ATCC25922, 24 h
How it was run: as §1

[9] = test system: Staphylococcus epidermidis ATCC 14990; test: as above; type: cell-based; settings: for MIC / MBC: Staphylococcus epidermidis; for MIC: ATCC14990, 24 h
How it was run: as §1

[10] = test system: L. donovani promastigotes; test: Anti-leishmanial screening at 100 μM, parasite viability by microscopy; type: cell-based, Leishmania donovani; settings: 100 μM, 72 h, phase contrast microscope
How it was run: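 Promastigotes (MHOM/IN/83/AG83) at 2 × 10^6 cells/mL in M199 with 10% FBS exposed to compound at 100 μM for 72 h at 22°C. Viability assessed microscopically; 0.2% DMSO solvent control, amphotericin B reference.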

[11] = read-out: MIC, Ca ATCC 90028, broth microdilution, 35°C, 48 h
[12] = ATCC90028, read-out: MFC, Ca ATCC 90028
[13] = broth microdilution, 35°C, 48 h
[14] = read-out: MIC, Cg ATCC 90030, broth microdilution, 35°C, 48 h
[15] = ATCC90030, read-out: MFC, Cg ATCC 90030
[16] = read-out: MIC, Af ATCC 16424, broth microdilution, 35°C, 48 h
[17] = ATCC16424, read-out: MFC, Af ATCC 16424
[18] = read-out: MIC, An ATCC 16404, broth microdilution, 35°C, 48 h
[19] = ATCC16404, read-out: MFC, An ATCC 16404
[20] = ATCC29213, read-out: MBC, Sa ATCC 29213
[21] = read-out: MIC, Pa ATCC 27853, broth microdilution, 35°C, 24 h
[22] = ATCC27853, read-out: MBC, Pa ATCC 27853
[23] = broth microdilution, 35°C, 24 h
[24] = read-out: MIC, Ec ATCC 25922, broth microdilution, 35°C, 24 h
[25] = ATCC25922, read-out: MBC, Ec ATCC 25922
[26] = read-out: MIC, Se ATCC 14990, broth microdilution, 35°C, 24 h
[27] = ATCC14990, read-out: MBC, Se ATCC 14990
[28] = ATCC90028, ≥99.9% reduction of original inoculum, read-out: MFC, Ca ATCC 90028
[29] = ATCC90030, ≥99.9% reduction of original inoculum, read-out: MFC, Cg ATCC 90030
[30] = broth microdilution, 35°C, 48 h, read-out: MIC, Af ATCC 16424
[31] = ATCC16424, ≥99.9% reduction of original inoculum, read-out: MFC, Af ATCC 16424
[32] = broth microdilution, 35°C, 48 h, read-out: MIC, An ATCC 16404
[33] = ATCC16404, ≥99.9% reduction of original inoculum, read-out: MFC, An ATCC 16404
[34] = ATCC29213, ≥99.9% reduction of original inoculum, read-out: MBC, Sa ATCC 29213
[35] = ATCC27853, ≥99.9% reduction of original inoculum, read-out: MBC, Pa ATCC 27853
[36] = ATCC25922, ≥99.9% reduction of original inoculum, read-out: MBC, Ec ATCC 25922
[37] = ATCC14990, ≥99.9% reduction of original inoculum, read-out: MBC, Se ATCC 14990

| Structure (SMILES) | Leishmanicidal effect (reversion after wash and 72 h in fresh media) [1] | MIC [2, 11] | MFC [2, 12] | MIC [3, 14] | MFC [3, 15] | MIC [4, 16] | MFC [4, 17] | MIC, Af ATCC 16424 [4, 13] | MIC [5, 18] | MFC [5, 19] | MIC, An ATCC 16404 [5, 13] | MBC [6, 20] | MIC [7, 21] | MBC [7, 22] | MIC [8, 24] | MBC [8, 25] | MIC [9, 26] | MBC [9, 27] | Parasite viability after treatment [10] | MFC [2, 28] | further results |
| --- | --- | --- | --- | --- | --- | --- | --- | --- | --- | --- | --- | --- | --- | --- | --- | --- | --- | --- | --- | --- | --- |
| CC/C(=C\c1ccc([N+](=O)[O-])cc1)[N+](=O)[O-] [Compound 9, 1-nitro-4-((E)-2-nitrobut-1-enyl) benzene] | did not revert back to their normal morphology and still appeared dead | 4 to 32 µg/mL (≈ 18 to 144 µM) | 8 µg/mL (≈ 36 µM) | 0.25 to 16 µg/mL (≈ 1.13 to 72 µM) | 0.25 µg/mL (≈ 1.13 µM) | 4 to 8 µg/mL (≈ 18 to 36 µM) | 8 µg/mL (≈ 36 µM) | 8 µg/mL (≈ 36 µM) | 2 to 4 µg/mL (≈ 9 to 18 µM) | 4 µg/mL (≈ 18 µM) | 4 µg/mL (≈ 18 µM) | 8 µg/mL (≈ 36 µM) | 16 to 32 µg/mL (≈ 72 to 144 µM) | 32 µg/mL (≈ 144 µM) | 16 to 32 µg/mL (≈ 72 to 144 µM) | 32 µg/mL (≈ 144 µM) | 2 to 16 µg/mL (≈ 9 to 72 µM) | 4 µg/mL (≈ 18 µM) | All the parasites were found to be dead |  | MIC, Ca ATCC 90028 [2, 13]: 8 µg/mL (≈ 36 µM); MIC, Cg ATCC 90030 [3, 13]: 0.25 µg/mL (≈ 1.13 µM); MIC, Pa ATCC 27853 [7, 23]: 16 µg/mL (≈ 72 µM); MIC, Ec ATCC 25922 [8, 23]: 16 µg/mL (≈ 72 µM); MIC, Se ATCC 14990 [9, 23]: 4 µg/mL (≈ 18 µM) |
| CC/C(=C\c1cccc([N+](=O)[O-])c1)[N+](=O)[O-] [Compound 12, 1-nitro-3-((E)-2-nitrobut-1-enyl) benzene] | did not revert back to their normal morphology and still appeared dead | 2 µg/mL (≈ 9 µM) | 2 µg/mL (≈ 9 µM) | 0.25 µg/mL (≈ 1.13 µM) | 0.25 µg/mL (≈ 1.13 µM) | 1 µg/mL (≈ 4.5 µM) | 1 µg/mL (≈ 4.5 µM) |  | 0.5 µg/mL (≈ 2.25 µM) | 0.5 µg/mL (≈ 2.25 µM) |  | 0.5 µg/mL (≈ 2.25 µM) | 16 µg/mL (≈ 72 µM) | 16 µg/mL (≈ 72 µM) | 16 µg/mL (≈ 72 µM) | 16 µg/mL (≈ 72 µM) | 0.25 µg/mL (≈ 1.13 µM) | 0.25 µg/mL (≈ 1.13 µM) | All the parasites were found to be dead |  | MIC ([6]; read-out: MIC, Sa ATCC 29213, broth microdilution, 35°C, 24 h): 0.5 µg/mL (≈ 2.25 µM) |
| COc1ccc(/C=C(\C)[N+](=O)[O-])cc1 [Compound 14, 1-methoxy-4-((E)-2-nitroprop-1-enyl) benzene] | did not revert back to their normal morphology and still appeared dead |  |  |  |  |  |  |  |  |  |  |  |  |  |  |  |  |  | All the parasites were found to be dead | 32 µg/mL (≈ 166 µM) | MIC ([2]; broth microdilution, 35°C, 48 h, read-out: MIC, Ca ATCC 90028): 32 µg/mL (≈ 166 µM); MIC ([3]; broth microdilution, 35°C, 48 h, read-out: MIC, Cg ATCC 90030): 8 µg/mL (≈ 41.4 µM); MFC [3, 29]: 8 µg/mL (≈ 41.4 µM); MIC [4, 30]: 8 µg/mL (≈ 41.4 µM); MFC [4, 31]: 8 µg/mL (≈ 41.4 µM); MIC [5, 32]: 4 µg/mL (≈ 20.7 µM); MFC [5, 33]: 4 µg/mL (≈ 20.7 µM); MIC ([6]; broth microdilution, 35°C, 24 h, read-out: MIC, Sa ATCC 29213): 8 µg/mL (≈ 41.4 µM); MBC [6, 34]: 8 µg/mL (≈ 41.4 µM); MIC ([7]; broth microdilution, 35°C, 24 h, read-out: MIC, Pa ATCC 27853): > 64 µg/mL; MBC [7, 35]: > 64 µg/mL; MIC ([8]; broth microdilution, 35°C, 24 h, read-out: MIC, Ec ATCC 25922): 64 µg/mL (≈ 331 µM); MBC [8, 36]: > 64 µg/mL; MIC ([9]; broth microdilution, 35°C, 24 h, read-out: MIC, Se ATCC 14990): 4 µg/mL (≈ 20.7 µM); MBC [9, 37]: 4 µg/mL (≈ 20.7 µM) |
| CC/C(=C\c1ccc(O)cc1)[N+](=O)[O-] [Compound 18, 4-((E)-2-nitrobut-1-enyl) phenol] | did not revert back to their normal morphology and still appeared dead |  |  |  |  |  |  | 8 µg/mL (≈ 41.4 µM) |  |  | 4 µg/mL (≈ 20.7 µM) |  |  |  |  |  |  |  | All the parasites were found to be dead | 16 µg/mL (≈ 82.8 µM) | MFC [3, 29]: 8 µg/mL (≈ 41.4 µM); MIC [4, 30]: 4 to 8 µg/mL (≈ 20.7 to 41.4 µM); MFC [4, 31]: 16 µg/mL (≈ 82.8 µM); MIC [5, 32]: 2 to 4 µg/mL (≈ 10.4 to 20.7 µM); MFC [5, 33]: 8 µg/mL (≈ 41.4 µM); MBC [6, 34]: 16 µg/mL (≈ 82.8 µM); MBC [7, 35]: > 64 µg/mL; MBC [8, 36]: > 64 µg/mL; MBC [9, 37]: 8 µg/mL (≈ 41.4 µM) |
